# According to article PMC3172808 (Journal of medicinal chemistry, 2011):
# Legend:
# [1] = rodents; ref [7]–[9]; cited from earlier work
# [2] = over 24 h; ref [16]; cited from earlier work
# [3] = test system: renal carcinoma cell line 786-0; test: potency toward MDR-1 expressing 786-0 cells with and without verapamil; assay type: cell-based
# aqueous solubility = assay type: physicochemical
# [4] = test system: MDA-MB-231 breast cancer model; conditions: continued dosing at 40 mg/kg (½MTD), ref [16], cited from earlier work
# MCF-7 cancer cells = conditions: read-out: MCF-7 IC50; Table 1; ref [17]–[20]; cited from earlier work
# A2780cis = test: potency toward A2780cis; assay type: cell-based, human; conditions: read-out: drug IC50 A2780cis; cisplatin resistant
# A2780ADR = test: potency toward A2780ADR; assay type: cell-based, human; conditions: read-out: drug IC50 A2780ADR; adriamycin resistant, MDR-1 overexpression
smiles,measurement,setting,value
"COc1cc2c(c(OC)c1OC)-c1ccc(OC)c(=O)cc1[C@@H](NC(C)=O)CC2 [Compound 1, colchicine]",LD50,[1],< 5 mg/kg
"COc1cc(C(=O)c2c(C)oc3c(O)c(OC)ccc23)cc(OC)c1OC [Compound 8, 7-hydroxy-6-methoxy-2-methyl-3-(3,4,5-trimethoxybenzoyl)benzo-[b]furan]",clearance from healthy tissues,[2],completely cleared from healthy tissues over 24 h
same,MDR-1 transporter substrate,[3],not a substrate for the MDR-1 transporter
same,aqueous solubility,aqueous solubility,poor
"COc1cc(C(=O)c2c(C)oc3c(OP(=O)([O-])[O-])c(OC)ccc23)cc(OC)c1OC.[Na+].[Na+] [Compound 9, Disodium (6-Methoxy-2-methyl-3-(3,4,5-trimethoxybenzoyl)benzofuran-7-yl)phosphate]","complete eradication of tumors, % of the mice",[4]; after 70 days,14%
same,tumor growth on continued dosing,[4],completely suppresses tumor growth
COc1ccc(-c2sccc2C(=O)c2cc(OC)c(OC)c(OC)c2)cc1O [Compound 14],IC50,MCF-7 cancer cells,0.3 ± 0.4 µM
N.N.[Cl][Pt][Cl] [cisplatin],IC50,A2780cis,5.02 µM
same,IC50,A2780ADR,1.1 µM
